Measurements from patent US20110183929A1, “STANDARDIZED EXTRACT AND FRACTION FROM HANCORNIA SPECIOSA LEAVES AND PHARMACEUTICAL COMPOSITION THEREOF” (priority 2008, published 2011).

Legend:
[1] = system: normotensive mice; assay: systolic pressure in normotensive mice (caudal vessel); assay type: in vivo; conditions: 1 mg/kg delivered orally
[2] = molecular target: T1, angiotensin converting enzyme (ACE) (Oryctolagus cuniculus, UniProt P12822); assay: colorimetric ACE inhibition assay (Serra et al.); assay type: biochemical; conditions: read-out: ACE inhibiting activity IC50
T1 sequence (P12822 34-1310): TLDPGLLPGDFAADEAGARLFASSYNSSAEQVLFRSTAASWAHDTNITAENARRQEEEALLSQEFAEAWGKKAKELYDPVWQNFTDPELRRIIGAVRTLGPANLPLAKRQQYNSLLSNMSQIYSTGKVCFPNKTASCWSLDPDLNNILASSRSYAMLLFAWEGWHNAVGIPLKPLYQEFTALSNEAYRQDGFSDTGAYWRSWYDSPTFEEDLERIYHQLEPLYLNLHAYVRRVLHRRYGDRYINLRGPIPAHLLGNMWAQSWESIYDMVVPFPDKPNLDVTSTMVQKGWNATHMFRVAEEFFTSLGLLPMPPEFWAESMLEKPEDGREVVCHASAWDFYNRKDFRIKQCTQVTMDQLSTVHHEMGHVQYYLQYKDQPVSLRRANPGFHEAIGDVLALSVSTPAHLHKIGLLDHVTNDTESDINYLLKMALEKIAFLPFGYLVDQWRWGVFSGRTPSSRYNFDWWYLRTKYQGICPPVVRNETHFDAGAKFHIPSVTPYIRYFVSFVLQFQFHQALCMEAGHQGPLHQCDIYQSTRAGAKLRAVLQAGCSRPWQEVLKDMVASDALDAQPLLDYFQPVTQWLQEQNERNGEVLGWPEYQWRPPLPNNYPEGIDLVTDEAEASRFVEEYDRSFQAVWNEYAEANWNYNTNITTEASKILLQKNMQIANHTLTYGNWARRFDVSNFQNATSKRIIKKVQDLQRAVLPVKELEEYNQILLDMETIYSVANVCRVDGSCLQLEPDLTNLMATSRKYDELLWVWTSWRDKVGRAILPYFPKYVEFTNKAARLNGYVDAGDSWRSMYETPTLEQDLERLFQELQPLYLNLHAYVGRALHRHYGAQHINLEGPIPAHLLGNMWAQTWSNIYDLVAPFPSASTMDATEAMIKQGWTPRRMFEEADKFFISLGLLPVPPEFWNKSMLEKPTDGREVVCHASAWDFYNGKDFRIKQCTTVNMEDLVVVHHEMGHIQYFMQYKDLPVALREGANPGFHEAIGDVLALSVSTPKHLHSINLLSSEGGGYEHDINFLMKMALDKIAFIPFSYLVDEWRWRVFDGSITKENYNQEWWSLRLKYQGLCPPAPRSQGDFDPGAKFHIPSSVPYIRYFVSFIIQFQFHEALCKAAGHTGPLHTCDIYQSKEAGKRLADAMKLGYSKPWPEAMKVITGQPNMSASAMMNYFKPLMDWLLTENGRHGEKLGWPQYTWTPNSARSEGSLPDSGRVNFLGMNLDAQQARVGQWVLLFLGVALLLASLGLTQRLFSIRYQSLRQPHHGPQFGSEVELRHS
Description: Despite being exhaustively referred to in ethnobotanic surveys, only few biological activities of Hancornia speciosa have been assessed. ACE inhibiting activity for ethanolic extract from the leaves of the said species has been referred to by Serra et al. (Serra, C. P.; Cortes, S. F.; Lombardi, J. A.; Braga De Oliveira, A.; Braga, F. C. Validation of a […] assay for the in vitro screening of inhibitors of angiotensin-converting enzyme (ACE) from plant extracts. Phytomedicine, v. 12, n. 6-7, 2005). These authors assessed several species of the Brazilian flora as for their ACE inhibiting potential. […] P.; Cortes, S. F.; Lombardi, J. A.; Braga De Oliveira, A.; Braga, F. C. Validation of a colorimetric assay for the in vitro screening of inhibitors of angiotensin-converting enzyme (ACE) from plant extracts. Phytomedicine, v. 12, n. 6-7, 2005), in the concentration of 0.1 mg/ml.

Compound | systolic arterial pressure / hypotensive effect [1] | IC50 [2] [µM]
C[C@H](CS)C(=O)N1CCC[C@H]1C(=O)O [Captopril] | significant hypotensive effect, but of low intensity and short duration | –
COC1[C@H](O)[C@H](O)C(O)[C@H](O)[C@H]1O (stereo partly drawn) [L-(+)-bornesitol] | – | 41.4 ± 9.6
C[C@@H]1O[C@@H](OC[C@H]2O[C@@H](Oc3c(-c4ccc(O)c(O)c4)oc4cc(O)cc(O)c4c3=O)[C@H](O)[C@@H](O)[C@@H]2O)[C@H](O)[C@H](O)[C@H]1O [rutin] | – | 454 ± 78.4
